Data as given in patent US20200010910A1, “Cytotoxic Chemotherapy-Based Predictive Assays for Acute Myeloid Leukemia” (The Regents of The University of California, priority 2017, published 2020).

Key:
Format in all cases: cell-based, human
A549, H1975 and HCC827 = assay: carboplatin-DNA monoadducts by AMS, average of resistant NSCLC lines; conditions: three resistant cell lines
Description: NSCLC cell lines were cultured to >90% confluence, dosed with [^14C]carboplatin, and subjected to DNA isolation and AMS analysis. 60 mm dishes were seeded at a density of 1×10^6 cells/dish and allowed to attach overnight in a 37° C. humidified atmosphere containing 5% CO2. At hour 0, cells were dosed with 1 μM (relevant microdose concentration) or 100 μM carboplatin (therapeutically relevant concentration), each comprising 0.3 μM [^14C]carboplatin (50,000 dpm/ml). Cells were incubated with [^14C]carboplatin for 4 h before washing and cultured with carboplatin-free medium to mimic the in vivo carboplatin half-life (1.3-6 hours) in patients. DNA was harvested from the cell lines at hours 0, 2, 4, 8 and 24 hours after initial dosing. Ten micrograms of DNA per sample was converted to graphite and measured by AMS for ^14C/total C quantification. Triplicate sets of AMS experiments were performed for each cell line and time point. The 14C/total C ratio was converted to 14C atoms per DNA base-pair according to the algorithm described herein to provide values of carboplatin-DNA monoadducts per 10^8 nucleotides. The data was plotted as carboplatin-DNA monoadducts per 10^8 nucleotide (nt) vs time (FIGS. 8A and 8B). There was a time-dependent increase in the carboplatin-DNA monoadduct concentration during the first 4 hours of incubation with therapeutic or microdosing carboplatin (FIGS. 8A and 8B). […]

H460 = assay: carboplatin-DNA monoadducts by AMS
Description: (§1) NSCLC cell lines were cultured to >90% confluence, dosed with [^14C]carboplatin, and subjected to DNA isolation and AMS analysis. 60 mm dishes were seeded at a density of 1×10^6 cells/dish and allowed to attach overnight in a 37° C. humidified atmosphere containing 5% CO2. At hour 0, cells were dosed with 1 μM (relevant microdose concentration) or 100 μM carboplatin (therapeutically relevant concentration), each comprising 0.3 μM [^14C]carboplatin (50,000 dpm/ml). Cells were incubated with [^14C]carboplatin for 4 h before washing and cultured with carboplatin-free medium to mimic the in vivo carboplatin half-life (1.3-6 hours) in patients. DNA was harvested from the cell lines at hours 0, 2, 4, 8 and 24 hours after initial dosing. Ten micrograms of DNA per sample was converted to graphite and measured by AMS for ^14C/total C quantification. Triplicate sets of AMS experiments were performed for each cell line and time point. The 14C/total C ratio was converted to 14C atoms per DNA base-pair according to the algorithm described herein to provide values of carboplatin-DNA monoadducts per 10^8 nucleotides. The data was plotted as carboplatin-DNA monoadducts per 10^8 nucleotide (nt) vs time (FIGS. 8A and 8B). There was a time-dependent increase in the carboplatin-DNA monoadduct concentration during the first 4 hours of incubation with therapeutic or microdosing carboplatin (FIGS. 8A and 8B). After the cells were washed and incubated with carboplatin-free media, the monoadduct levels decreased over a period of several hours. […] Carboplatin-DNA monoadduct levels in the microdosing group had essentially the same kinetics as the therapeutic group, but with 100-fold lower adduct levels at each time point (FIGS. 8A and 8B).

A549 = assay: carboplatin-DNA monoadducts by AMS
Description: as §1

H1975 = assay: carboplatin-DNA monoadducts by AMS
Description: as §1

H23 = assay: carboplatin-DNA monoadducts by AMS
Description: as §1

H727 = assay: carboplatin-DNA monoadducts by AMS
Description: as §1

HCC827 = assay: carboplatin-DNA monoadducts by AMS
Description: as §1

[1] = 1 μM carboplatin 4 h, up to 24 hours
[2] = 1 μM carboplatin 4 h then drug-free
[3] = 100 μM carboplatin 4 h, up to 24 hours
[4] = 100 μM carboplatin 4 h then drug-free

N.N.O=C([O-])C1(C(=O)[O-])CCC1.[Pt+2] [carboplatin]
average area under curve (AUC) of carboplatin-DNA monoadducts (A549, H1975 and HCC827; microdosing): 43.36±9.55 hr-monoadducts per 10^8 nt | average area under curve (AUC) of carboplatin-DNA monoadducts (A549, H1975 and HCC827; therapeutic dosing): 3916.7±1280.0 hr-monoadducts per 10^8 nt | Adduct level-4 hr-microdose (H460; 1 μM carboplatin): 6.8 ± 0.2 /10^8 nt | AUC of adduct-microdose (H460; [1]): 85.6 ± 8.4 hr-adducts/10^8 nt | Adduct level-24 hr Microdose (H460; [2]): 1.0 ± 0.4 /10^8 nt | Adduct level-4 hr-therapeutic (H460; 100 μM carboplatin): 885 ± 36.3 /10^8 nt | AUC of adduct-therapeutic (H460; [3]): 9488 ± 902 hr-adducts/10^8 nt | Adduct level-24 hr-therapeutic (H460; [4]): 177 ± 11.5 /10^8 nt | Adduct level-4 hr-microdose (A549; 1 μM carboplatin): 2.0 ± 0.4 /10^8 nt | AUC of adduct-microdose (A549; [1]): 31.5 ± 1.6 hr-adducts/10^8 nt | Adduct level-24 hr Microdose (A549; [2]): 0.9 ± 0.0 /10^8 nt | Adduct level-4 hr-therapeutic (A549; 100 μM carboplatin): 163 ± 74.4 /10^8 nt | AUC of adduct-therapeutic (A549; [3]): 2331 ± 257 hr-adducts/10^8 nt | Adduct level-24 hr-therapeutic (A549; [4]): 74 ± 10.4 /10^8 nt | Adduct level-4 hr-microdose (H1975; 1 μM carboplatin): 3.3 ± 0.5 /10^8 nt | AUC of adduct-microdose (H1975; [1]): 47.0 ± 4.8 hr-adducts/10^8 nt | Adduct level-24 hr Microdose (H1975; [2]): 1.1 ± 0.6 /10^8 nt | Adduct level-4 hr-therapeutic (H1975; 100 μM carboplatin): 322 ± 24.1 /10^8 nt | AUC of adduct-therapeutic (H1975; [3]): 4478 ± 353 hr-adducts/10^8 nt | Adduct level-24 hr-therapeutic (H1975; [4]): 108 ± 33.3 /10^8 nt | Adduct level-4 hr-microdose (H23; 1 μM carboplatin): 7.4 ± 1.4 /10^8 nt | AUC of adduct-microdose (H23; [1]): 136.6 ± 9.0 hr-adducts/10^8 nt | Adduct level-24 hr Microdose (H23; [2]): 5.4 ± 0.1 /10^8 nt | Adduct level-4 hr-therapeutic (H23; 100 μM carboplatin): 825 ± 5.8 /10^8 nt | AUC of adduct-therapeutic (H23; [3]): 13255 ± 835 hr-adducts/10^8 nt | Adduct level-24 hr-therapeutic (H23; [4]): 414 ± 27.1 /10^8 nt | Adduct level-4 hr-microdose (H727; 1 μM carboplatin): 6.23 ± 2.73 /10^8 nt | AUC of adduct-microdose (H727; [1]): 61.7 ± 9.0 hr-adducts/10^8 nt | Adduct level-24 hr Microdose (H727; [2]): 1.3 ± 0.1 /10^8 nt | Adduct level-4 hr-therapeutic (H727; 100 μM carboplatin): 684 ± 223.5 /10^8 nt | AUC of adduct-therapeutic (H727; [3]): 6111 ± 661 hr-adducts/10^8 nt | Adduct level-24 hr-therapeutic (H727; [4]): 174 ± 5.6 /10^8 nt | Adduct level-4 hr-microdose (HCC827; 1 μM carboplatin): 2.5 ± 0.0 /10^8 nt | AUC of adduct-microdose (HCC827; [1]): 51.7 ± 2.4 hr-adducts/10^8 nt | Adduct level-24 hr Microdose (HCC827; [2]): 1.8 ± 0.3 /10^8 nt | Adduct level-4 hr-therapeutic (HCC827; 100 μM carboplatin): 295 ± 58.8 /10^8 nt | AUC of adduct-therapeutic (HCC827; [3]): 4941 ± 739 hr-adducts/10^8 nt | Adduct level-24 hr-therapeutic (HCC827; [4]): 162 ± 15.4 /10^8 nt
